In US20250171495A1, “MUTLI-TARGETED SERINE PROTEASE INHIBITORS FOR TREATMENT OF CANCER AND VIRAL INFECTION” (Washington University, priority 2023, published 2025):

Assays:
Format in all cases: biochemical
hepsin = molecular target: T1, hepsin (Homo sapiens, UniProt P05981); experiment: HyCoSuL P4-P2 substrate specificity screening, hepsin; details: for P2 Position Substrate Activity for hepsin (percent substrate cleavage/proteolysis): residue fixed at P2 position; for P2 Position Substrate Activity for hepsin (percent substrate cleavage/proteolysis) / P3 Position Substrate Activity for hepsin (percent substrate cleavage/proteolysis): P1-Arg HyCoSuL, 100 μM, best recognized amino acid set to 100%; for P3 Position Substrate Activity for hepsin (percent substrate cleavage/proteolysis): residue fixed at P3 position; for P4 Position Various Amino Acids Substrate Activity, hepsin (percent substrate proteolysis/cleavage): residue fixed at P4 position of substrate library; for P3 Position Various Amino Acids Substrate Activity, hepsin (percent substrate cleavage/proteolysis): residue fixed at P3 position of substrate library
T1 construct: purchased R&D Systems 4776-SE-010
T1 sequence (P05981 163-417 limits assumed): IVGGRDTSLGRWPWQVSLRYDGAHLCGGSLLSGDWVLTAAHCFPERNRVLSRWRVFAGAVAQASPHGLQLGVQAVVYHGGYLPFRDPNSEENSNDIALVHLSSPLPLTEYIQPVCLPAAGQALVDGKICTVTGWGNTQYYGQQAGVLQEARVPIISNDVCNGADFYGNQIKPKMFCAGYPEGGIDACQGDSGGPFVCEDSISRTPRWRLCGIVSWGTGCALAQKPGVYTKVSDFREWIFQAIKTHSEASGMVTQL
T1 sequence (P05981 1-162 partner limits assumed): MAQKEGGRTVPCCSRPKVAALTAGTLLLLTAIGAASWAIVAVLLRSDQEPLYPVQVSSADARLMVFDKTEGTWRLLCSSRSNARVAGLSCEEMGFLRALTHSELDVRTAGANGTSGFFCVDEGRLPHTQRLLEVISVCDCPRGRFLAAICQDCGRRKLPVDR

TMPRSS2 = TMPRSS2 (Homo sapiens, UniProt O15393); experiment: PS-SCL / HyCoSuL substrate specificity screening, TMPRSS2; details: for P2 Position Substrate Activity for TMPRSS2 (percent substrate cleavage/proteolysis): residue fixed at P2 position of substrate library; for P2 Position Substrate Activity for TMPRSS2 (percent substrate cleavage/proteolysis) / P3 Position Substrate Activity for TMPRSS2 (percent substrate cleavage/proteolysis): best recognized amino acid set to 100%; for P3 Position Substrate Activity for TMPRSS2 (percent substrate cleavage/proteolysis) / P3 Position Various Amino Acids Substrate Activity, TMPRSS2 (percent substrate cleavage/proteolysis): residue fixed at P3 position of substrate library; for P4 Position Various Amino Acids Substrate Activity, TMPRSS2 (percent substrate proteolysis/cleavage): residue fixed at P4 position of substrate library
Sequence of TMPRSS2 (O15393 whole entry): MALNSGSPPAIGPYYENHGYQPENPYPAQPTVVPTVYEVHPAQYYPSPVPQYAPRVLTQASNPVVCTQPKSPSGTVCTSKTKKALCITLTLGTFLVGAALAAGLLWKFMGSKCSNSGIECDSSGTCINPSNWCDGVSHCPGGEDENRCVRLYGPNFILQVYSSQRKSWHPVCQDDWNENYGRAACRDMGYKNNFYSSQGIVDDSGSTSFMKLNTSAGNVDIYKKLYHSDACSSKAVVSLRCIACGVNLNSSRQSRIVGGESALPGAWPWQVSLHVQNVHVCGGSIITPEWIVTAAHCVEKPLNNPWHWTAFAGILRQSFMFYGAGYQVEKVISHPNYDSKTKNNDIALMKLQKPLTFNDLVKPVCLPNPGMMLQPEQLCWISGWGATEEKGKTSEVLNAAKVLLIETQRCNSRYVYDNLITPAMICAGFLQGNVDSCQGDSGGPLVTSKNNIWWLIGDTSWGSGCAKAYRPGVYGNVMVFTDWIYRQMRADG

HGFA = molecular target: T2, HGFA (Homo sapiens, UniProt Q04756); experiment: HyCoSuL P4-P2 substrate specificity screening, HGFA; details: for P2 Position Substrate Activity for HGFA (percent substrate cleavage/proteolysis): residue fixed at P2 position; for P2 Position Substrate Activity for HGFA (percent substrate cleavage/proteolysis) / P3 Position Substrate Activity for HGFA (percent substrate cleavage/proteolysis): P1-Arg HyCoSuL, 100 μM, best recognized amino acid set to 100%; for P3 Position Substrate Activity for HGFA (percent substrate cleavage/proteolysis): residue fixed at P3 position; for P4 Position Various Amino Acids Substrate Activity, HGFA (percent substrate proteolysis/cleavage): residue fixed at P4 position of substrate library; for P3 Position Various Amino Acids Substrate Activity, HGFA (percent substrate cleavage/proteolysis): residue fixed at P3 position of substrate library
T2 sequence (Q04756 373-655): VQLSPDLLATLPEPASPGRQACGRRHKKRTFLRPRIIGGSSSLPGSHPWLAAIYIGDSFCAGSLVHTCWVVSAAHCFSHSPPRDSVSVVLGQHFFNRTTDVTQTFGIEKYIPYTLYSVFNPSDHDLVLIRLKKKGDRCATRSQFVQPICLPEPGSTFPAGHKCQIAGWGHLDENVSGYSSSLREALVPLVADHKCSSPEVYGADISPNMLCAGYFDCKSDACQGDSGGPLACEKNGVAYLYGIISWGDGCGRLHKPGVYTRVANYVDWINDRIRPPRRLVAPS

matriptase = molecular target: T3, matriptase (Homo sapiens, UniProt Q9Y5Y6); experiment: HyCoSuL P4-P2 substrate specificity screening, matriptase; details: for P2 Position Substrate Activity for matriptase (percent substrate cleavage/proteolysis): residue fixed at P2 position; for P2 Position Substrate Activity for matriptase (percent substrate cleavage/proteolysis) / P3 Position Substrate Activity for matriptase (percent substrate cleavage/proteolysis): P1-Arg HyCoSuL, 100 μM, best recognized amino acid set to 100%; for P3 Position Various Amino Acids Substrate Activity, matriptase (percent substrate cleavage/proteolysis): residue fixed at P3 position of substrate library; for P3 Position Substrate Activity for matriptase (percent substrate cleavage/proteolysis): residue fixed at P3 position; for P4 Position Various Amino Acids Substrate Activity, matriptase (percent substrate proteolysis/cleavage): residue fixed at P4 position of substrate library
T3 sequence (Q9Y5Y6 1-855): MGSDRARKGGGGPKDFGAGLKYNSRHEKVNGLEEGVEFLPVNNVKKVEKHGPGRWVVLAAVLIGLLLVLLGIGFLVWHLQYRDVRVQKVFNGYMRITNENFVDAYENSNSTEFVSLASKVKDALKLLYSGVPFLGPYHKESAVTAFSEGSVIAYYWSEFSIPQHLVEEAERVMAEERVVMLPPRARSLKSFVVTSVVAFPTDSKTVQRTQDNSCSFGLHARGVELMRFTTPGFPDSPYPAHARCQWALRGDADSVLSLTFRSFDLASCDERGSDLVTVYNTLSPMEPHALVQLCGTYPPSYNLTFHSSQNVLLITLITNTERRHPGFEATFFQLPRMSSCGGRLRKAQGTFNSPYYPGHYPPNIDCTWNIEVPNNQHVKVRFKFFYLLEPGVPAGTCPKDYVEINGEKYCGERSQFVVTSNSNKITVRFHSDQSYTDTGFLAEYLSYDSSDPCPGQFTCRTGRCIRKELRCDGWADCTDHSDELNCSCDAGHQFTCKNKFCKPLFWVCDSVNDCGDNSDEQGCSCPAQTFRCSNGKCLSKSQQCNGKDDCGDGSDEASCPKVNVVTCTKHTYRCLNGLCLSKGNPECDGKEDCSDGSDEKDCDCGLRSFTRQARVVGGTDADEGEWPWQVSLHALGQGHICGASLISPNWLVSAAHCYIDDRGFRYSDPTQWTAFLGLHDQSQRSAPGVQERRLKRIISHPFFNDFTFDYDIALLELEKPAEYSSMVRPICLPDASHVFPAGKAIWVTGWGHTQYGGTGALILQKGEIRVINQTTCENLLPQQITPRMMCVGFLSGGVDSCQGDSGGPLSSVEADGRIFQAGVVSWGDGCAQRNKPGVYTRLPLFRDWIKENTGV

Row | Substance | P2 Position Substrate Activity for hepsin (percent substrate cleavage/proteolysis) (hepsin) [%] | P3 Position Substrate Activity for hepsin (percent substrate cleavage/proteolysis) (hepsin) [%] | P4 Position Various Amino Acids Substrate Activity, hepsin (percent substrate proteolysis/cleavage) (hepsin) [%] | P2 Position Substrate Activity for TMPRSS2 (percent substrate cleavage/proteolysis) (TMPRSS2) [%] | P3 Position Substrate Activity for TMPRSS2 (percent substrate cleavage/proteolysis) (TMPRSS2) [%] | P4 Position Various Amino Acids Substrate Activity, TMPRSS2 (percent substrate proteolysis/cleavage) (TMPRSS2) [%] | P2 Position Substrate Activity for HGFA (percent substrate cleavage/proteolysis) (HGFA) [%] | P3 Position Substrate Activity for HGFA (percent substrate cleavage/proteolysis) (HGFA) [%] | P4 Position Various Amino Acids Substrate Activity, HGFA (percent substrate proteolysis/cleavage) (HGFA) [%] | P2 Position Substrate Activity for matriptase (percent substrate cleavage/proteolysis) (matriptase) [%] | P3 Position Various Amino Acids Substrate Activity, matriptase (percent substrate cleavage/proteolysis) (matriptase) [%] | P3 Position Substrate Activity for matriptase (percent substrate cleavage/proteolysis) (matriptase) [%] | P4 Position Various Amino Acids Substrate Activity, matriptase (percent substrate proteolysis/cleavage) (matriptase) [%] | P3 Position Various Amino Acids Substrate Activity, hepsin (percent substrate cleavage/proteolysis) (hepsin) [%] | P3 Position Various Amino Acids Substrate Activity, TMPRSS2 (percent substrate cleavage/proteolysis) (TMPRSS2) [%] | P3 Position Various Amino Acids Substrate Activity, HGFA (percent substrate cleavage/proteolysis) (HGFA) [%]
1 | D-Lys | 0.00 | 64.56 | 49.84 | 0.00 | 0.00 | 16.31 | 0.00 | 21.11 | 17.66 | 0 | 15 | 14.70 | 14 |  |  | 
2 | D-Phe | 0.00 |  | 13.15 | 0.00 |  | 24.14 | 0.00 |  | 8.13 | 0 | 5 |  | 6 | 24.92 | 3.80 | 15.22
3 | D-Pro | 0.00 |  | 20.45 | 0.00 |  | 19.76 | 0.00 |  | 10.30 | 0 | 0 |  | 9 | 38.88 | 0.00 | 4.96
4 | D-Ser | 11.55 |  | 21.84 | 0.00 |  | 31.72 | 0.00 |  | 7.94 | 0 | 2 |  | 10 | 54.84 | 0.00 | 10.86
5 | D-Thr | 0.00 |  | 25.74 | 0.00 |  | 22.57 | 0.00 |  | 8.61 | 0 | 2 |  | 9 | 36.69 | 0.00 | 6.45
6 | D-Trp | 0.00 | 24.90 | 1.48 | 0.00 | 31.94 | 22.02 | 0.00 | 87.59 | 7.65 | 0 | 5 | 76.43 | 5 |  |  | 
7 | D-Tyr | 0.00 |  | 12.66 | 0.00 |  | 33.78 | 0.00 |  | 10.09 | 0 | 6 |  | 7 | 29.94 | 4.49 | 17.32
8 | D-Val | 0.00 |  | 22.58 | 0.00 |  | 17.70 | 0.00 |  | 8.25 | 0 | 1 |  | 7 | 27.04 | 0.00 | 5.76
